These results are taken from US5252575A, “Antiviral purine derivatives with improved gastrointestinal absorption” (Beecham Group p.l.c., priority 1992, dated 1993).

Read-outs that look alike come from different tables or passages of the source.

Data set [1] is described as follows: Further evaluation of BRL55792 as oral prodrug of BRL44385: AUC in blood of squirrel monkeys (Table 2). The data set is classed as in vivo. The settings on record: 110 umol/kg, squirrel monkey, single oral dose 0.11 mmol/kg, 0-8 h, 3 animals. How it is done:
|Further evaluation of BRL55792 as a potential oral prodrug of BRL44385 in |rats and squirrel monkeys | ^a Compounds were administered as a single oral dose at either 0.2 | mmol/kg (equivalent to 44.5 mg/kg free BRL44385) to rats with an | indwelling aortic cannula or 0.11 mmol/kg (equivalent to 25 mg/kg free | BRL44385) to squirrel monkeys. Sequential blood samples were collected up | to 8 h after compound administration. Following treatment as described in | table 1, the samples were assayed for BRL55792, BRL44385 and intermediate | matabolites. | ^b Mean areaunder-the-curve values were calculated from blood | concentrationtime profiles from 3 animals by the trapezoidal rule (0-6 h | for rats and 0-8 h for squirrel monkeys). | ^c AUC of BRL44385 from prodrug/AUC of BRL44385 from oral BRL44385

The nature of data set [2]: Concentrations of BRL44385 and its prodrugs detected in the blood of mice after oral administration (Table 1). The data set is classed as in vivo, female Balb/c mice. To be noted: mouse, 200 umol/kg, total 9-alkoxypurines, 0.2 mmol/kg oral gavage. How it is done:
|Concentrations of BRL44385 and its Prodrugs Detected in the |Blood of Mice after Oral Administration of |9-(Alkoxymethoxypropoxy)purines^a | ^a Compounds were administered as single doses of 0.2 mmol/kg in 0.1 | ml of 1% (carboxymethyl)cellulose by oral gavage to female Balb/c mice | weighing approximately 20 g. Food was withheld for 18 h prior to the star | of the experiment. Blood was collected by cardiac puncture using | heparinised syringes 15, 60 and 180 min after dosing. Equal volumes (0.2 | ml) from three mice were pooled at each time point and 0.6 ml of 16% | trichloroacetic acid was added. After centrifugation, 0.5 ml of | supernatent was added to 0.1 ml of saturated aqueous NaHCO3 followed | by the addition of 0.6 ml of 0.4M NH4 OAc (pH 6.0) and the mixture | analysed by HPLC. | ^b 9-Alkoxypurine concentrations <2 μM were detected in the blood | 180 min after dosing.

Take `CC(C)OCOCCCOn1cnc2cnc(N)nc21` [Example 1, 2-Amino-9-[3-(isopropoxymethoxy)propoxy)purine]: the AUC at 8 h in data set [1] (analyte BRL55792, read-out: Mean Area-under-the-curve ± SEM for BRL 55792) is 13 ± 5.7 µM·h.

Regarding `Nc1nc(O)c2ncn(OCCCO)c2n1` [Example E1, 9-(3-hydroxyprop-1-oxy)guanine], in data set [1] (analyte BRL44385, read-out: Mean Area-under-the-curve ± SEM for BRL 44385), the AUC at 8 h stood at 13 ± 2.4 µM·h. Further, the concentration at 0.25 h in data set [2] (15 min, read-out: Concn in blood at time (min) after dosing: total 9-alkoxypurines, 15) is 8.9 µM. Moreover, the concentration at 1 h in data set [2] (60 min, read-out: Concn in blood at time (min) after dosing: total 9-alkoxypurines, 60) was 4 µM.
